The source of these data is article PMC12169679 (Journal of Medicinal Chemistry, 2025).

For series [1], the system named is EBOV-GP-pseudotype virus (pEBOV). Nature of the series: microbe, parasite or virus in culture. As to conditions: Zaire ebolavirus, Vero C1008, read-out: EC50 (pEBOV).
The test system is the same in series [2].
In the next series the test system is A549 cells. Conditions: cited from earlier work.
The next series can be described thus: in vitro. As to conditions: African green monkey.

One may read the EC50 as the concentration giving half of the maximal effect. On to `CN(C)CCOc1ccc(/C(=C(/CCCl)c2ccccc2)c2ccccc2)cc1` [Toremifene, reference compound], for which, in series [1], the EC50 was determined as 0.17 µM. Also, the “SI (pEBOV) (CC50/EC50)” value in series [2] was “d Toremifene was used as the reference of the assay EC50 = 0.17 μM (95% CI = 0.15–0.54 μM), CC50 (VeroE6 cells) = 10 μM, SI = 58.8 (lit^25: EC50 = 0.07 ± 0.05 μM, CC50 (A549 cells) = 16 μM, SI = 229)”. Also, the CC50 is 16 µM in the series with A549 cells and 10 µM in “in vitro”.
